# Source: PMC5218480 (PLoS ONE, 2017)
# System: MV-4-11 cells
# Assay: Gene expression microarray analysis (Affymetrix PrimeView) and GSEA
# Assay type: cell-based, human
# Set-up: RFU PODN (11730768_x_at) / Fold change /veh PODN (11730768_x_at) / RFU LINC00158 (11744669_a_at) / Fold change /veh LINC00158 (11744669_a_at) / RFU DUSP10 (11751237_a_at) / Fold change /veh DUSP10 (11751237_a_at) / RFU ID3 (11757404_x_at) / Fold change /veh ID3 (11757404_x_at) / RFU PLEKHG5 (11737974_s_at) / Fold change /veh PLEKHG5 (11737974_s_at) / RFU LRRC4B (11730491_at) / Fold change /veh LRRC4B (11730491_at) / RFU GIMAP4 (11747438_a_at) / Fold change /veh GIMAP4 (11747438_a_at) / RFU KRT8 (11758183_x_at) / Fold change /veh KRT8 (11758183_x_at) / RFU CNN1 (11734310_a_at) / Fold change /veh CNN1 (11734310_a_at) / RFU VPS37D (11726825_at) / Fold change /veh VPS37D (11726825_at) / RFU C10orf10 (11716522_x_at) / Fold change /veh C10orf10 (11716522_x_at) / RFU KIR2DL2 /// KIR2DL4 /// KIR2DL5A /// KIR2DL5B /// KIR2DS1 /// KIR2DS2 /// KIR2DS3 /// KIR2DS4 /// KIR3DL3 /// KIR3DL3 /// KIR3DS1 (11738374_at) / Fold change /veh KIR2DL2 /// KIR2DL4 /// KIR2DL5A /// KIR2DL5B /// KIR2DS1 /// KIR2DS2 /// KIR2DS3 /// KIR2DS4 /// KIR3DL3 /// KIR3DL3 /// KIR3DS1 (11738374_at) / RFU C1QL1 (11718748_at) / Fold change /veh C1QL1 (11718748_at) / RFU TMPRSS4 (11747572_a_at) / Fold change /veh TMPRSS4 (11747572_a_at) / RFU HAMP (11756126_x_at) / Fold change /veh HAMP (11756126_x_at) / RFU RNFT2 (11725882_a_at) / Fold change /veh RNFT2 (11725882_a_at) / RFU NR4A2 (11747474_a_at) / Fold change /veh NR4A2 (11747474_a_at) / RFU ABCC12 (11746883_a_at) / Fold change /veh ABCC12 (11746883_a_at) / RFU TMEM136 (11760407_x_at) / Fold change /veh TMEM136 (11760407_x_at) / RFU CLDN22 /// WWC2 (11732394_at) / Fold change /veh CLDN22 /// WWC2 (11732394_at) / RFU HLA-DPB1 (11760878_x_at) / Fold change /veh HLA-DPB1 (11760878_x_at) / RFU SPINT1 (11716480_a_at) / Fold change /veh SPINT1 (11716480_a_at) / RFU GAP43 (11754022_s_at) / Fold change /veh GAP43 (11754022_s_at) / RFU A4GNT (11735810_at) / Fold change /veh A4GNT (11735810_at) / RFU PRB3 (11715151_x_at) / Fold change /veh PRB3 (11715151_x_at) / RFU TUBB4B (11761932_at) / Fold change /veh TUBB4B (11761932_at) / RFU CAPN14 (11732068_a_at) / Fold change /veh CAPN14 (11732068_a_at) / RFU TMCC2 (11721928_a_at) / Fold change /veh TMCC2 (11721928_a_at) / RFU IRGQ (11745062_a_at) / Fold change /veh IRGQ (11745062_a_at) / RFU FAM174B (11720279_a_at) / Fold change /veh FAM174B (11720279_a_at) / RFU TMPRSS4 (11748680_a_at) / Fold change /veh TMPRSS4 (11748680_a_at) / RFU FAM212B (11763350_a_at) / Fold change /veh FAM212B (11763350_a_at) / RFU PLEKHG5 (11743358_a_at) / Fold change /veh PLEKHG5 (11743358_a_at) / RFU ZSCAN30 (11745921_a_at) / Fold change /veh ZSCAN30 (11745921_a_at) / RFU CMKLR1 (11741424_a_at) / Fold change /veh CMKLR1 (11741424_a_at) / RFU LOC101060620 /// MAPK8IP1 (11723275_at) / Fold change /veh LOC101060620 /// MAPK8IP1 (11723275_at) / RFU SPTSSB (11747773_x_at) / Fold change /veh SPTSSB (11747773_x_at) / RFU PRSS12 (11739890_at) / Fold change /veh PRSS12 (11739890_at) / RFU BIN1 (11741810_x_at) / Fold change /veh BIN1 (11741810_x_at) / RFU WNT11 (11732464_a_at) / Fold change /veh WNT11 (11732464_a_at) / RFU C10orf10 (11716521_a_at) / Fold change /veh C10orf10 (11716521_a_at) / RFU C5orf56 (11738089_at) / Fold change /veh C5orf56 (11738089_at) / RFU CYB561 (11721691_x_at) / Fold change /veh CYB561 (11721691_x_at) / RFU ANKRD19P (11752326_a_at) / Fold change /veh ANKRD19P (11752326_a_at) / RFU OR2T12 /// OR2T33 /// OR2T8 (11738714_s_at) / Fold change /veh OR2T12 /// OR2T33 /// OR2T8 (11738714_s_at) / RFU VCAN (11748164_a_at) / Fold change /veh VCAN (11748164_a_at) / RFU JSRP1 (11732532_at) / Fold change /veh JSRP1 (11732532_at) / RFU KRTAP10-11 (11738290_x_at) / Fold change /veh KRTAP10-11 (11738290_x_at) / RFU MYO3A (11730013_a_at) / Fold change /veh MYO3A (11730013_a_at) / RFU EBF3 (11725865_a_at) / Fold change /veh EBF3 (11725865_a_at) / RFU CAMK2N1 (11719241_x_at) / Fold change /veh CAMK2N1 (11719241_x_at) / RFU C5orf56 (11738088_a_at) / Fold change /veh C5orf56 (11738088_a_at) / RFU OLFML3 (11715873_a_at) / Fold change /veh OLFML3 (11715873_a_at) / RFU LOC100653217 /// NTM (11731650_a_at) / Fold change /veh LOC100653217 /// NTM (11731650_a_at) / RFU MAPK11 (11762145_a_at) / Fold change /veh MAPK11 (11762145_a_at) / RFU FIZ1 (11724087_x_at) / Fold change /veh FIZ1 (11724087_x_at) / RFU OASL (11726364_x_at) / Fold change /veh OASL (11726364_x_at) / RFU SOX15 (11748057_x_at) / Fold change /veh SOX15 (11748057_x_at) / RFU CD79A (11719716_a_at) / Fold change /veh CD79A (11719716_a_at) / RFU HIST1H1D (11736915_at) / Fold change /veh HIST1H1D (11736915_at) / RFU CASKIN2 (11723855_a_at) / Fold change /veh CASKIN2 (11723855_a_at) / RFU LOC730098 (11760151_x_at) / Fold change /veh LOC730098 (11760151_x_at) / RFU OR4N2 (11742367_at) / Fold change /veh OR4N2 (11742367_at) / RFU PRRT2 (11749266_a_at) / Fold change /veh PRRT2 (11749266_a_at) / RFU SNX32 (11753110_a_at) / Fold change /veh SNX32 (11753110_a_at) / RFU CDHR5 (11726645_a_at) / Fold change /veh CDHR5 (11726645_a_at) / RFU RCAN1 (11760418_a_at) / Fold change /veh RCAN1 (11760418_a_at) / RFU FAM167A (11723789_a_at) / Fold change /veh FAM167A (11723789_a_at) / RFU FAM26E (11764081_at) / Fold change /veh FAM26E (11764081_at) / RFU ISYNA1 (11749810_s_at) / Fold change /veh ISYNA1 (11749810_s_at) / RFU ACY1 (11761880_at) / Fold change /veh ACY1 (11761880_at) / RFU 11764098_at / Fold change /veh 11764098_at / RFU SAMD14 (11745864_x_at) / Fold change /veh SAMD14 (11745864_x_at) / RFU NPB (11741838_a_at) / Fold change /veh NPB (11741838_a_at) / RFU TMPRSS6 (11731388_a_at) / Fold change /veh TMPRSS6 (11731388_a_at) / RFU KRTAP10-2 (11738614_at) / Fold change /veh KRTAP10-2 (11738614_at) / RFU ARHGAP8 /// PRR5-ARHGAP8 (11727945_x_at) / Fold change /veh ARHGAP8 /// PRR5-ARHGAP8 (11727945_x_at) / RFU KRTAP5-7 /// NADSYN1 (11734609_at) / Fold change /veh KRTAP5-7 /// NADSYN1 (11734609_at) / RFU RASL12 (11751679_a_at) / Fold change /veh RASL12 (11751679_a_at) / RFU CDKN2B (11736163_a_at) / Fold change /veh CDKN2B (11736163_a_at) / RFU PRF1 (11729649_at) / Fold change /veh PRF1 (11729649_at) / RFU, ZNF638 /// ZNF638-IT1 / Fold change vs veh, ZNF638 /// ZNF638-IT1 / RFU, PANK3 / Fold change vs veh, PANK3 / RFU, SH3YL1 / Fold change vs veh, SH3YL1 / RFU, ZEB2 / Fold change vs veh, ZEB2 / RFU, NRIP1 / Fold change vs veh, NRIP1 / RFU, PTTG1IP / Fold change vs veh, PTTG1IP / RFU, CAPN2 / Fold change vs veh, CAPN2 / RFU, MED14 / Fold change vs veh, MED14 / RFU, SNORA58 / Fold change vs veh, SNORA58 / RFU, C1orf63 / Fold change vs veh, C1orf63 / RFU, LRRFIP1 / Fold change vs veh, LRRFIP1 / RFU, NDUFAF7 / Fold change vs veh, NDUFAF7 / RFU, SLC12A2 / Fold change vs veh, SLC12A2 / RFU, IBTK / Fold change vs veh, IBTK / RFU, ESF1 / Fold change vs veh, ESF1 / Fold change vs veh, TMEM50B / RFU, TAOK1 / Fold change vs veh, TAOK1 / RFU, ACBD3 / Fold change vs veh, ACBD3 / RFU, TMA16 / Fold change vs veh, TMA16 / RFU, RWDD3 / Fold change vs veh, RWDD3 / RFU, BCAT1 / Fold change vs veh, BCAT1 / RFU, EDEM3 / Fold change vs veh, EDEM3 / RFU, TMEM33 / Fold change vs veh, TMEM33 / RFU, WDR75 / Fold change vs veh, WDR75 / RFU, AHCTF1 / Fold change vs veh, AHCTF1 / RFU, TFRC / Fold change vs veh, TFRC / RFU, ZDHHC17 / Fold change vs veh, ZDHHC17 / RFU, NOM1 / Fold change vs veh, NOM1 / RFU, ARL8B / Fold change vs veh, ARL8B / RFU, ZBTB11 / Fold change vs veh, ZBTB11 / RFU, TAMM41 / Fold change vs veh, TAMM41 / RFU, KIAA1704 /// LOC100996395 / Fold change vs veh, KIAA1704 /// LOC100996395 / RFU, ING1 / Fold change vs veh, ING1 / RFU, TRMT61B / Fold change vs veh, TRMT61B / RFU, FUBP3 / Fold change vs veh, FUBP3 / RFU, TP53 / Fold change vs veh, TP53 / RFU, TNKS2 / Fold change vs veh, TNKS2 / RFU, ZFP14 / Fold change vs veh, ZFP14 / RFU, ACTR2 / Fold change vs veh, ACTR2 / RFU, PPP3R1 / Fold change vs veh, PPP3R1 / RFU, PIK3R1 / Fold change vs veh, PIK3R1 / RFU, HNRNPA1 / Fold change vs veh, HNRNPA1 / RFU, RNF170 / Fold change vs veh, RNF170 / RFU, ZNF28 / Fold change vs veh, ZNF28 / RFU, RNGTT / Fold change vs veh, RNGTT / RFU, OGT / Fold change vs veh, OGT / RFU, BRD1 / Fold change vs veh, BRD1 / RFU, MARS / Fold change vs veh, MARS / RFU, ZNF655 / Fold change vs veh, ZNF655 / RFU, FAHD1 / Fold change vs veh, FAHD1 / RFU, BDP1 / Fold change vs veh, BDP1 / RFU, LRRCC1 / Fold change vs veh, LRRCC1 / RFU, ARID1A / Fold change vs veh, ARID1A / RFU, ZNF146 / Fold change vs veh, ZNF146 / RFU, ZNF330 / Fold change vs veh, ZNF330 / RFU, GPN3 / Fold change vs veh, GPN3 / RFU, C9orf123 / Fold change vs veh, C9orf123 / RFU, N4BP2L2 / Fold change vs veh, N4BP2L2 / RFU, ARFIP1 / Fold change vs veh, ARFIP1 / RFU, FAM179B / Fold change vs veh, FAM179B / RFU, BCL10 / Fold change vs veh, BCL10 / RFU, UHRF1BP1L / Fold change vs veh, UHRF1BP1L / RFU, BET1 / Fold change vs veh, BET1 / RFU, CNOT2 / Fold change vs veh, CNOT2 / RFU, ZNF268 / Fold change vs veh, ZNF268 / Fold change vs veh, ZNF507 / RFU, DGCR2 / Fold change vs veh, DGCR2 / RFU, WDSUB1 / Fold change vs veh, WDSUB1 / Fold change vs veh, HSP90B1 /// MIR3652 / RFU, ADSS / Fold change vs veh, ADSS / RFU, GK / Fold change vs veh, GK / RFU, ZNF148 / Fold change vs veh, ZNF148 / RFU, TAF9 / Fold change vs veh, TAF9 / RFU, SLC1A5 / Fold change vs veh, SLC1A5 / RFU, SLMO2 / Fold change vs veh, SLMO2 / RFU, ABCC4 / Fold change vs veh, ABCC4 / RFU, LOC101060439 /// RAP1B / Fold change vs veh, LOC101060439 /// RAP1B / RFU, RFX7 / Fold change vs veh, RFX7 / RFU, GTPBP10 / Fold change vs veh, GTPBP10 / RFU, CNEP1R1 / Fold change vs veh, CNEP1R1 / RFU, BIVM-ERCC5 /// ERCC5 / Fold change vs veh, BIVM-ERCC5 /// ERCC5 / RFU, ILF3 / Fold change vs veh, ILF3 / RFU 11762660_at / Fold change /veh 11762660_at / RFU VCAN (11757783_s_at) / Fold change /veh VCAN (11757783_s_at) / RFU DDX43 (11728927_at) / Fold change /veh DDX43 (11728927_at) / RFU KRT8 (11758188_x_at) / Fold change /veh KRT8 (11758188_x_at) / RFU NKD1 (11759106_at) / Fold change /veh NKD1 (11759106_at) / RFU SRD5A1 (11742802_a_at) / Fold change /veh SRD5A1 (11742802_a_at) / RFU TPSAB1 /// TPSB2 (11721975_s_at) / Fold change /veh TPSAB1 /// TPSB2 (11721975_s_at) / RFU GSTM3 (11746129_a_at) / Fold change /veh GSTM3 (11746129_a_at) / RFU IL23R (11737362_x_at) / Fold change /veh IL23R (11737362_x_at) / RFU TMEM51 (11727254_a_at) / Fold change /veh TMEM51 (11727254_a_at) / RFU PIWIL2 (11732686_x_at) / Fold change /veh PIWIL2 (11732686_x_at) / RFU ORM1 (11744905_x_at) / Fold change /veh ORM1 (11744905_x_at) / RFU CCDC152 (11743942_at) / Fold change /veh CCDC152 (11743942_at) / RFU ECM1 (11717891_a_at) / Fold change /veh ECM1 (11717891_a_at) / RFU IL23R (11748794_a_at) / Fold change /veh IL23R (11748794_a_at) / RFU TNFAIP8L3 (11732012_x_at) / Fold change /veh TNFAIP8L3 (11732012_x_at) / RFU MBOAT4 (11741988_at) / Fold change /veh MBOAT4 (11741988_at) / RFU 11764193_at / Fold change /veh 11764193_at / RFU TMEM53 (11763286_at) / Fold change /veh TMEM53 (11763286_at) / RFU MAGEB2 (11727129_at) / Fold change /veh MAGEB2 (11727129_at) / RFU TMEM200A (11744735_a_at) / Fold change /veh TMEM200A (11744735_a_at) / RFU CCDC152 (11751479_a_at) / Fold change /veh CCDC152 (11751479_a_at) / RFU FAM211A (11726209_a_at) / Fold change /veh FAM211A (11726209_a_at) / RFU RGS16 (11746705_a_at) / Fold change /veh RGS16 (11746705_a_at) / RFU VCAN (11755009_s_at) / Fold change /veh VCAN (11755009_s_at) / RFU RHOB (11743442_s_at) / Fold change /veh RHOB (11743442_s_at) / RFU RGS16 (11720943_a_at) / Fold change /veh RGS16 (11720943_a_at) / RFU RGS16 (11720944_at) / Fold change /veh RGS16 (11720944_at) / RFU, VPS4B / Fold change vs veh, VPS4B / RFU, CREB1 / Fold change vs veh, CREB1 / RFU, DNAJC13 / Fold change vs veh, DNAJC13 / RFU, GNAQ / Fold change vs veh, GNAQ / RFU, CDK5R1 / Fold change vs veh, CDK5R1 / RFU, ZRANB3 / Fold change vs veh, ZRANB3 / RFU, CUL4A / Fold change vs veh, CUL4A / RFU, CCNY / Fold change vs veh, CCNY / RFU, UFL1 / Fold change vs veh, UFL1 / RFU, COG3 / Fold change vs veh, COG3 / RFU, DIAPH2 / Fold change vs veh, DIAPH2 / RFU, SKA2 / Fold change vs veh, SKA2 / RFU, AFF3 / Fold change vs veh, AFF3 / RFU, LMF1 / Fold change vs veh, LMF1 / RFU, IPO11 / Fold change vs veh, IPO11 / RFU, DFFB / Fold change vs veh, DFFB / RFU, FOXP1 / Fold change vs veh, FOXP1 / RFU, CARD8 / Fold change vs veh, CARD8 / RFU, STRN3 / Fold change vs veh, STRN3 / RFU, ADK / Fold change vs veh, ADK / RFU, RASSF2 / Fold change vs veh, RASSF2 / RFU, WIPF1 / Fold change vs veh, WIPF1 / RFU, LARP1B / Fold change vs veh, LARP1B / RFU, RASA1 / Fold change vs veh, RASA1 / RFU, RB1 / Fold change vs veh, RB1 / RFU, PPFIA1 / Fold change vs veh, PPFIA1 / RFU, MAT2A / Fold change vs veh, MAT2A / RFU, CCT5 / Fold change vs veh, CCT5 / RFU, WDR92 / Fold change vs veh, WDR92 / RFU, CUX1 / Fold change vs veh, CUX1 / RFU, TTC7A / Fold change vs veh, TTC7A / RFU, TMEM135 / Fold change vs veh, TMEM135 / RFU, DEPTOR / Fold change vs veh, DEPTOR / RFU, CPM / Fold change vs veh, CPM / RFU, DNAJB6 / Fold change vs veh, DNAJB6 / RFU, CACNA2D3 / Fold change vs veh, CACNA2D3 / RFU, DTX4 / Fold change vs veh, DTX4 / RFU, TFCP2 / Fold change vs veh, TFCP2 / RFU, GMCL1 /// GMCL1P1 / Fold change vs veh, GMCL1 /// GMCL1P1 / RFU, AEBP2 / Fold change vs veh, AEBP2 / RFU, SNHG1 /// SNORD22 /// SNORD25 /// SNORD26 /// SNORD27 /// SNORD28 /// SNORD29 /// SNORD31 / Fold change vs veh, SNHG1 /// SNORD22 /// SNORD25 /// SNORD26 /// SNORD27 /// SNORD28 /// SNORD29 /// SNORD31 / Fold change (Aza/veh), C12orf56 (ProbeSet 11735607_a_at) / Fold change (ACY-1035/veh), C12orf56 (ProbeSet 11735607_a_at) / Fold change (Aza/veh), FGFR1OP (ProbeSet 11751329_s_at) / Fold change (ACY-1035/veh), FGFR1OP (ProbeSet 11751329_s_at) / Fold change (Aza/veh), VPS36 (ProbeSet 11739960_a_at) / Fold change (ACY-1035/veh), VPS36 (ProbeSet 11739960_a_at) / RFU SYPL1 (11715823_x_at) / Fold change /veh SYPL1 (11715823_x_at) / RFU IGFBP7 (11715501_s_at) / Fold change /veh IGFBP7 (11715501_s_at) / RFU REEP3 (11722064_at) / Fold change /veh REEP3 (11722064_at) / RFU IGLL1 (11728026_x_at) / Fold change /veh IGLL1 (11728026_x_at): dose or concentration left out as unconfirmed
# Details: MV-4-11 cells, 48 hours
smiles,measurement,value
Nc1ccc(-c2cccs2)cc1NC(=O)c1ccc2c(c1)cc(C1CC1)n2CCN1CCOCC1 [ACY-1035],RFU MYO3A (11730013_a_at),90.31 RFU
